Measured values published in paper PMC9741454, “Selective Structural Derivatization of Flavonoid Acetamides Significantly Impacts Their Bioavailability and Antioxidant Properties” (Molecules, 2022).
Several values for one entry are separate records, joined by “and”; a condition that tells them apart may be missing. Equal values may be shown once.

Legend:
[1] = DPPH free radical scavenging assay; details: relative IC50, 30 min in the dark, absorbance at 517 nm, methanolic DPPH
Procedure: The stock solutions of the flavonoid acetamide derivatives were prepared in dimethyl sulfoxide. A fresh batch of 50 µM DPPH radical solution was prepared in methanol. The DPPH free radical scavenging activities of the flavonoid acetamide derivatives were determined using our previously reported literature procedure.
Into an amber vial, 1.00 × 10^2 µL solution of the flavonoid acetamide derivative in dimethyl sulfoxide was added into a 3.00 × 10^3 µL of a fresh batch of methanolic DPPH solution. This reaction mixture was incubated, away from light, for half an hour. The absorbance of the resultant solution was read on a UV-Vis spectrophotometer, λmax = 517 nm. This experiment was done across several concentrations to obtain the concentration-based antioxidant activity data which was subsequently used to calculate the relative half-maximal inhibitory concentration (IC50) values.
Given the observed variation of the stability of the DPPH free radical across different solvent vehicles, the stability of the DPPH free radicals was established in both methanol and dimethyl sulfoxide solvents. The percentage DPPH free radical scavenging activity of the flavonoid acetamide derivatives was computed against dimethyl sulfoxide, as per Equation (3). (3) % DPPH RSA=Absorbance of control−Absorbance of sample /Absorbance of control×100
Absorbance control is the absorbance of the blank methanolic DPPH sample with DMSO. The absorbance values were obtained at λmax = 517 nm.
The % RSA obtained was plotted and used to obtain the relative half-maximal inhibitory concentration (IC50) values, which were double confirmed using verified online computational tools.
The 2,2-diphenyl-1-picrylhydrazyl (DPPH) assay was used to evaluate the free radical scavenging capacity of the flavonoid acetamide derivatives. This assay is based on the colorimetric quantification of the DPPH free radicals. The reaction of the DPPH radicals with an antioxidant compound results in the loss of the DPPH free radical properties. The loss of the DPPH free radical properties is identifiable through a color change; a discoloration marked by the formation of a yellow color from the initial violet color. Slight antioxidant activity may be visually imperceptible; such a change may still be monitored spectrophotometrically through UV-Vis analysis at λmax = 517 [40, 44, 45].
The ability of the flavonoid acetamide derivatives to scavenge the DPPH free radicals is influenced by the concentration of both the flavonoid acetamide derivative and the DPPH free radicals, the reaction time, and presence of light during the reaction. The reaction time was set at 30 min and the concentration of the DPPH free radicals was […]. The concentration of the flavonoid acetamide derivatives was varied and the experiment was carried out in the dark. The actual concentration of the DPPH free radical before the addition of the flavonoid acetamide derivative was used as the standard for the purposes of the estimation of the DPPH free radical scavenging effect. The decrease in the DPPH free radical concentration upon the addition of the flavonoid acetamide derivative was used to calculate the antioxidant activity of the flavonoid acetamide derivatives. Thus, the greater the decrease in the DPPH free radical concentration, the higher the antioxidant activity. The antioxidant activity was expressed as the % RSA. […]

[2] = In vitro bioavailability by dialysis tubing procedure (pepsin then pancreatin digestion); type: in vitro ADME; details: for % bioavailability after phase 1 (pepsin digestion) / % bioavailability after phase 2 (pancreatin digestion): in vitro, dialysis tubing, average of three trials ± SD; for % bioavailability after phase 1 (pepsin digestion): 2 h pepsin digestion, pH 1.0, 37 °C; for % bioavailability after phase 2 (pancreatin digestion): 4 h pancreatin digestion, pH 7.0, 37 °C; for Total in vitro bioavailability: sum of phase 1 and phase 2 % bioavailability; for % bioavailability after phase 1 (pepsin digestion): tested at 69.8 µM
Procedure: The in vitro bioavailability studies of the flavonoid acetamide derivatives were done in simulated gastric and intestinal fluids using the dialysis tubing procedure, as previously reported. The procedure involves two consecutive digestion stages: phase 1, which is a 2-h pepsin-based digestion followed by phase 2, which is a 4-h pancreatin based digestion. This procedure was adopted from Chimento, Adele, et al. (2013) and Grande, Fedora, et al. (2016).
Phase 1: Pepsin digestion, 2 h
The flavonoid acetamide derivatives were dissolved in dimethyl sulfoxide (DMSO) to achieve a concentration of 1.00 × 10^−3 M. The porcine pepsin was prepared to achieve 2.40 × 10^4 U porcine pepsin per 1.00 × 10^−3 L of solution. The sodium cholate solution was prepared to attain a final concentration of 2.00 w/v% while hydrochloric acid was prepared at a concentration of 8.50 × 10^−1 N, for immediate use.
The pepsin digestion phase was completed in 120 min. Into an oven dried test tube, a 1.00 mL of the newly prepared porcine pepsin solution was added, followed by 300 µL of the flavonoid acetamide solution. These two solutions were mixed prior to the addition of 3.00 mL of a fresh batch of the sodium cholate solution. The resultant solution was appropriately mixed and transferred into a dialysis tubing, which was subsequently sealed on both ends. The dialysis tubing was immersed into a freshly prepared 0.85 N hydrochloric acid solution (pH 1.0). The flask and its contents were incubated in a shaking water bath at a regulated temperature of 37 ± 0.5 °C. After 120 min, 3.00 mL of the liquid in the flask was obtained for UV-Vis analysis. The dialysis tubing was carefully recovered and readied for the second stage of the experiment, phase 2. Each sample experiment was done in triplicates.
Phase 2: Pancreatin digestion, 4 h
The following solutions were prepared for immediate use: a solution containing 8.00 × 10^−1 N sodium bicarbonate with […] of porcine pancreatin per 1.00 mL of solution. The dialysis tubing recovered following the pepsin digestion was carefully opened on one end and for the addition of […] of esterase and 1.30 mL of the fresh batch of the NaHCO3 solution. These contents were appropriately mixed, and the dialysis tubing was suitably sealed and immersed in a flask with PBS buffer (at pH 7.0). The flask was incubated for 4 h, in a shaking water bath at a regulated temperature of 37 ± 0.5 °C. At the end of the experiment, a 3.00 mL sample of the liquid in the flask was obtained for UV-Vis analysis. All sample experiments in this phase were done in triplicates.
The calibration curve for each flavonoid acetamide derivative was prepared at both pH 1.0 and pH 7.0. The triplicate samples obtained from both phase 1 and phase 2 of the digestions were characterized using UV-Vis; the data obtained was applied to the equations obtained from the calibration curves to calculate the amount of the flavonoid acetamide derivatives in the recovered samples. The percentage (%) of the recovered flavonoid acetamide derivative for each sample after both pepsin digestion (phase 1) and pancreatin digestion (phase 2) was calculated relative to the total flavonoid content used. Thus, the (%) bioavailability was determined from Equation (1) below. (1) % Bioavailability=Recovered Content/Total Content×100
The total in vitro bioavailability was defined as the sum of the % bioavailability after phase 1 and % bioavailability after phase 2 of the digestion, as shown in Equation (2). The final reported in vitro bioavailability value was the average of the three trials ± the standard deviation. (2) Total Bioavailability=phase 1 bioavailability+phase 2 bioavailability
The bioavailability of the flavonoid acetamides was determined using our previously reported in vitro dialysis tubing procedure. […]

Row | SMILES | IC50 [1] [µM] | % bioavailability after phase 1 (pepsin digestion) [2] | % bioavailability after phase 2 (pancreatin digestion) [2] | Total in vitro bioavailability [2]
1 | NC(=O)COc1cc(O)c2c(=O)c(OCC(N)=O)c(-c3ccc(OCC(N)=O)c(OCC(N)=O)c3)oc2c1 [Compound 4, 2,2′-((4-(3,7-bis(2-amino-2-oxoethoxy)-5-hydroxy-4-oxo-4H-chromen-2-yl)-1,2-phenylene)bis(oxy))diacetamide] | 31.5 | 6.70% and 6.70 ± 0.03% | 9.26% and 9.26 ± 0.05% | 15.97% and 15.97 ± 0.04%
2 | CCOC(=O)COc1cc(OCC(N)=O)cc2oc(-c3ccc(OCC(N)=O)c(OCC(N)=O)c3)c(OCC(N)=O)c(=O)c12 [Compound 5, ethyl 2-((3,7-bis(2-amino-2-oxoethoxy)-2-(3,4-bis(2-amino-2-oxoethoxy)phenyl)-4-oxo-4H-chromen-5-yl)oxy)acetate] | 198 | 11.52% and 11.52 ± 0.02% | 13.14% and 13.14 ± 0.01% | 24.66% and 24.66 ± 0.01%

Next, values leading:

Row | IC50 [1] [µM] | % bioavailability after phase 1 (pepsin digestion) [2] | % bioavailability after phase 2 (pancreatin digestion) [2] | Total in vitro bioavailability [2] | SMILES
3 | 47.1 | 12.51% and 12.51 ± 0.02% | 18.01% and 18.01 ± 0.26% | 30.51% and 30.51 ± 0.27% | NC(=O)COc1cc(O)c2c(=O)cc(-c3ccc(OCC(N)=O)c(OCC(N)=O)c3)oc2c1 [Compound 15, 2,2′-((4-(7-(2-amino-2-oxoethoxy)-5-hydroxy-4-oxo-4H-chromen-2-yl)-1,2-phenylene)bis(oxy))diacetamide]
4 | 93.7 | 9.98% and 9.98 ± 0.10% | 9.30% and 9.30 ± 0.09% | 19.28% and 19.28 ± 0.19% | NC(=O)COc1ccc(-c2cc(=O)c3c(O)cc(OCC(N)=O)cc3o2)cc1 [Compound 11, 2-(4-(7-(2-amino-2-oxoethoxy)-5-hydroxy-4-oxo-4H-chromen-2-yl)phenoxy)acetamide]
5 | 59.2 | 16.11% and 16.11 ± 0.11% | 22.01% and 22.01 ± 0.21% | 38.12 ± 0.16% and 38.12% | NC(=O)COc1cc(OCC(N)=O)c2c(=O)c(OCC(N)=O)c(-c3ccc4c(c3)OCCO4)oc2c1 [Compound 7, 2,2′,2″-((2-(2,3-dihydrobenzo[b][1,4]dioxin-6-yl)-4-oxo-4H-chromene-3,5,7-triyl)tris(oxy))triacetamide]
